We go through one substance from patent publication US7887818B2, “Neospora caninum vaccine” (The United States of America as represented by the …, priority 2008, dated 2011).

For test [1], the system named is NcCyP. Nature of the test: Western blot detection of anti-NcCyP antibodies in mouse sera (NcAg as antigen). Conditions: for percent of mice with detectable antibodies against NcCyP: overall data from both trials. The test is classed as in vivo, N. caninum. As to the method: (§1) Adult female BALB/c mice (10-12 weeks old; 15 per group; National Cancer Institute, Frederick, Md.) were immunized s.c. in the lower back with a dose of 20 μg of rNcCyP, rNcSRS2, or 20 μg each of NcCyP and NcSRS2 formulated with adjuvants ImmuMax-SR® (a chitosan-based oil emulsion formulation [U.S. Pat. No. 5,980,912; Nov. 9, 1999]; (Repros Therapeutics Inc., formerly Zonagen Inc., TX) and CpG (ImmunoEasy, Qiagen) (Groups 1, 2, and 3). Control groups received non-recombinant antigen formulated with adjuvants ImmuMax-SR® and CpG (Group 4) or RPMI 1640 alone (Groups 5 and 6). The mice were given a secondary immunization 3 weeks later with the same preparation used in the primary immunization. All mice except for those in Group 6 were challenged s.c. with 10^5 N. caninum tachyzoites (NC1 isolate) in 50 μl RPMI 1640 three weeks following the secondary immunization. Group 6 mice received RPMI 1640 only and remained uninfected throughout the experiment (Table 1). All mice were euthanized 3 weeks after challenge infection, and brain tissue and blood were collected at necropsy and processed for Neospora DNA and serum antibody analysis as described (Liddell et al. 1999b. Int J. Parasitol. 29: 1583-1587). Animal use and care of the present study was approved by the BARC Animal Use and Care Committee in accordance with appropriate regulations.
The presence of specific antibodies to NcCyP or NcSRS2 was also confirmed with Western blotting using NcAg as antigen (FIG. 5). In brief, N. caninum tachyzoite protein (equivalent to 10^6 tachyzoites/blot strip) were fractionated by SDS-PAGE under reducing conditions and transblotted to Immobilon membrane (Millipore) in a semi-dry blot apparatus (BioRad). Low-range molecular weight markers (BioRad) were electrophoresed in a separate well to allow for Mr estimation of native N. caninum tachyzoite protein. After blotting, the membranes were cut into vertical strips, treated with blocking agent (PBS-2% non-fat dry milk) for 30 min at RT, and then incubated for 2 hr at RT with a 1:100 dilution of serum from individual mice in each treatment group. The blot strips were then incubated for 1 hr with biotinylated goat anti-mouse IgG (H+L ch. sp., 1:1000 dilution, Sigma Chemical Co.), followed by alkaline-phosphatase-labeled avidin (1:25,000 dilution, Sigma), and developed with NBT-BCIP substrate (Pierce). The blots were washed 3 times between each incubation step with PBS-0.05% Tween 20 (Sigma).
On the technique in general: A western blot detects proteins with antibodies after separation by electrophoresis.

Test [2] has as its system NcSRS2. The test can be described thus: Western blot detection of anti-NcSRS2 antibodies in mouse sera (NcAg as antigen). Format: in vivo, N. caninum. As to the method:
as §1, with “regulations. […]” for “regulations.”

For test [3], the system named is N. caninum tachyzoites (NC1 isolate). Nature of the test: Vaccination and N. caninum tachyzoite challenge; N. caninum-specific Nc5 PCR on brain tissue. Conditions: for Positive/Total = number of mice brain positive for N. caninum DNA/total mice in the group: 3 weeks after s.c. challenge with 10^5 tachyzoites; for level of protection against challenge infection compared to control groups: vs non-recombinant- or non-vaccinated groups. Format: in vivo, BALB/c mice. The method, then: as §1
Mouse brain tissue was extracted for DNA using standard procedures (Jenkins et al. 2004, supra). The presence of N. caninum in brain tissue was determined by N. caninum-specific Nc5 PCR using Np6/Np21 primers (Muller et al. 1996. J. Clin. Microbiol. 34: 2850-2852; Yamage et al. 1996. J. Parasitol. 82: 272-279) and an internal standard to control for false negative reactions as described (Jenkins et al. 2004a, supra; Liddell et al. 1999a, supra).

Test [4] concerns NcCyP. Nature of the test: ELISA of NcCyP-specific antibody levels in sera of vaccinated mice. The test is classed as in vivo, N. caninum. Conditions: mouse sera 1:100, both trials, 3 weeks after challenge. As to the method:
as §1, with “All mice were euthanized 3 weeks after challenge infection, and brain tissue and blood were collected at necropsy and processed for Neospora DNA and serum antibody analysis as described (Liddell et al. 1999b. Int J. Parasitol. 29: 1583-1587). Animal use and care of the present study was approved by the BARC Animal Use and Care Committee in accordance with appropriate regulations.” left out
(§2) Antigen-specific antibody levels of vaccinated mice were determined by ELISA using purified rNcCyP or rNcSRS2. […] The wells were incubated with alkaline phosphatase-labeled goat anti-mouse IgG (H+L ch. sp., 1:5,000, Sigma) for 1 hr at RT, followed by addition of p-nitrophenyl phosphate substrate (Sigma), and reading on a microtiter plate reader at […].
In general terms: An ELISA detects its analyte on a solid surface through an enzyme-linked reagent.

For test [5], the system named is NcSRS2. The test can be described thus: ELISA of NcSRS2-specific antibody levels in sera of vaccinated mice. Format: in vivo, N. caninum. Particulars: mouse sera 1:100, both trials, 3 weeks after challenge. The method, then:
as §1, with “All mice were euthanized 3 weeks after challenge infection, and brain tissue and blood were collected at necropsy and processed for Neospora DNA and serum antibody analysis as described (Liddell et al. 1999b. Int J. Parasitol. 29: 1583-1587). Animal use and care of the present study was approved by the BARC Animal Use and Care Committee in accordance with appropriate regulations.” left out
as §2

For the substance “Group 1: recombinant Neospora caninum cyclophilin protein (SEQ ID NO:2), 20 μg formulated with adjuvants ImmuMax-SR and CpG”, the “number of mice with detectable anti-NcCyP Ab in total mice of the group” value in test [1] (Trial I) was 11/14^3; in test [1] (Trial II), 12/15. In addition, the “percent of mice with detectable antibodies against NcCyP” value in test [1] (listed as NcCyP) is reported as “about 77%”; in test [1] (listed as rNcCyP) it was 78%. Moreover, the “number of mice with detectable anti-NcSRS2 Ab in total mice of the group” value in test [2] (Trial I) is recorded as 0/14; in test [2] (Trial II), 0/15. Further, the “Positive/Total = number of mice brain positive for N. caninum DNA/total mice in the group” value is recorded as 1/15 in test [3] (Trial I) and 3/15 in test [3] (Trial II). The “average percent of mice brain-positive for N. caninum” value in test [3] (average of both trials) is recorded as 13%. In addition, the percent protection in test [3] (for both trials, (mice brain negative for Nc DNA/total)x100, formulated with ImmuMax-SR/CpG) is listed as 80-93%. In addition, in test [3] (mean positive/total from trials I and II), the “Positive/Total (Mean)” value is 2/15. In addition, in test [3] (range of trials I and II), the “percent of mice brain-positive for N. caninum, range over the trials” value is listed as 7-20%. Further, the “level of protection against challenge infection compared to control groups” value in test [3] (listed as NcCyP) is recorded as “significantly higher protection”; in test [3] (listed as rNcCyP), “higher (p<0.001) levels of protection”. The “levels of NcCyP-specific antibodies (ELISA) compared to other groups” value in test [4] is reported as “significantly higher (p<0.01)”. The “levels of NcSRS2-specific antibodies (ELISA) compared to other groups” value in test [5] was “higher (p<0.05)”.
